In patent US12077503B2, “Substituted cyclic amides and their use as herbicides” (FMC CORPORATION, priority 2015, dated 2024):

Assays:
Format in all cases: in vivo
[1] = tested on: giant foxtail (Setaria faberii); test: Test A preemergence; settings: Setaria faberi, pre-emergence, 240 h, 0 to 100 scale where 0 is no effect and 100 is complete control, read-out: Foxtail, Giant plant response rating; for pest or weed control at 31 g/ha: 31 g ai/ha, Preemergence; for pest or weed control at 125 g/ha: 125 g ai/ha, preemergence, approx. 10 d
Method in brief: (§1)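 Each rating is a visual injury score from 0 to 100 given about 10 d after treatment, judged against untreated controls kept alongside in the greenhouse. In loam soil–sand blend, seeds got a preemergence directed soil spray, while postemergence plants were 2 to 10 cm tall at spraying.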

[2] = tested on: barnyardgrass (Echinochloa crus-galli); test: Test A preemergence; settings: Echinochloa crus-galli, pre-emergence, 240 h, 0 to 100 scale where 0 is no effect and 100 is complete control, read-out: Barnyardgrass plant response rating; for pest or weed control at 31 g/ha: 31 g ai/ha, Preemergence; for pest or weed control at 125 g/ha: 125 g ai/ha, preemergence, approx. 10 d
Method in brief: as §1

Kochia (Kochia scoparia) [3] = test: Test A preemergence; settings: Bassia scoparia, pre-emergence, 240 h, 0 to 100 scale where 0 is no effect and 100 is complete control, read-out: Kochia plant response rating; for pest or weed control at 31 g/ha: 31 g ai/ha, Preemergence; for pest or weed control at 125 g/ha: 125 g ai/ha, preemergence, approx. 10 d
Method in brief: as §1

[4] = tested on: ragweed (common ragweed, Ambrosia elatior); test: Test A preemergence; settings: Ambrosia artemisiifolia, pre-emergence, 240 h, 0 to 100 scale where 0 is no effect and 100 is complete control, read-out: Ragweed plant response rating; for pest or weed control at 31 g/ha: 31 g ai/ha, Preemergence; for pest or weed control at 125 g/ha: 125 g ai/ha, preemergence, approx. 10 d
Method in brief: as §1

[5] = tested on: pigweed (Amaranthus retroflexus); test: Test A preemergence; settings: Amaranthus retroflexus, pre-emergence, 240 h, 0 to 100 scale where 0 is no effect and 100 is complete control, read-out: Pigweed plant response rating; for pest or weed control at 31 g/ha: 31 g ai/ha, Preemergence; for pest or weed control at 125 g/ha: 125 g ai/ha, preemergence, approx. 10 d
[6] = tested on: ryegrass, Italian (Italian ryegrass, Lolium multiflorum); test: Test A preemergence; settings: Lolium multiflorum, pre-emergence, 240 h, 0 to 100 scale where 0 is no effect and 100 is complete control, read-out: Ryegrass, Italian plant response rating; for pest or weed control at 31 g/ha: 31 g ai/ha, Preemergence; for pest or weed control at 125 g/ha: 125 g ai/ha, preemergence, approx. 10 d
Method in brief: as §1

[7] = tested on: giant foxtail (Setaria faberii); test: Test A postemergence; settings: Setaria faberi, post-emergence, 240 h; for pest or weed control at 125 g/ha: 125 g ai/ha, postemergence, visual injury vs untreated controls after approx. 10 d, 0 = no effect, 100 = complete control, read-out: Foxtail, Giant plant response rating (0 to 100 scale); for pest or weed control at 31 g/ha: Postemergence, 31 g ai/ha, visual injury after approx. 10 d, 0 to 100 scale, 0 no effect, 100 complete control, read-out: Plant response rating, Foxtail, Giant
Method in brief: as §1

[8] = tested on: barnyardgrass (Echinochloa crus-galli); test: Test A postemergence; settings: Echinochloa crus-galli, post-emergence, 240 h; for pest or weed control at 125 g/ha: 125 g ai/ha, postemergence, visual injury vs untreated controls after approx. 10 d, 0 = no effect, 100 = complete control, read-out: Barnyardgrass plant response rating (0 to 100 scale); for pest or weed control at 31 g/ha: Postemergence, 31 g ai/ha, visual injury after approx. 10 d, 0 to 100 scale, 0 no effect, 100 complete control, read-out: Plant response rating, Barnyardgrass
Method in brief: as §1

[9] = tested on: wheat (Triticum aestivum); test: Test A postemergence; settings: Triticum aestivum, post-emergence, 240 h; for plant injury at 125 g/ha: 125 g ai/ha, postemergence, visual injury vs untreated controls after approx. 10 d, 0 = no effect, 100 = complete control, read-out: Wheat plant response rating (0 to 100 scale)
Method in brief: as §1

[10] = tested on: Galium (catchweed bedstraw, Galium aparine); test: Test A postemergence; settings: Galium, post-emergence, 240 h; for pest or weed control at 125 g/ha: 125 g ai/ha, postemergence, visual injury vs untreated controls after approx. 10 d, 0 = no effect, 100 = complete control, read-out: Galium plant response rating (0 to 100 scale); for pest or weed control at 31 g/ha: Postemergence, 31 g ai/ha, visual injury after approx. 10 d, 0 to 100 scale, 0 no effect, 100 complete control, read-out: Plant response rating, Galium
Method in brief: as §1

Kochia (Kochia scoparia) [11] = test: Test A postemergence; settings: Bassia scoparia, post-emergence, 240 h; for pest or weed control at 125 g/ha: 125 g ai/ha, postemergence, visual injury vs untreated controls after approx. 10 d, 0 = no effect, 100 = complete control, read-out: Kochia plant response rating (0 to 100 scale); for pest or weed control at 31 g/ha: Postemergence, 31 g ai/ha, visual injury after approx. 10 d, 0 to 100 scale, 0 no effect, 100 complete control, read-out: Plant response rating, Kochia
Method in brief: as §1

[12] = tested on: ragweed (common ragweed, Ambrosia elatior); test: Test A postemergence; settings: Ambrosia artemisiifolia, post-emergence, 240 h; for pest or weed control at 125 g/ha: 125 g ai/ha, postemergence, visual injury vs untreated controls after approx. 10 d, 0 = no effect, 100 = complete control, read-out: Ragweed plant response rating (0 to 100 scale)
Method in brief: as §1

[13] = tested on: pigweed (Amaranthus retroflexus); test: Test A postemergence; settings: Amaranthus retroflexus, post-emergence, 240 h; for pest or weed control at 125 g/ha: 125 g ai/ha, postemergence, visual injury vs untreated controls after approx. 10 d, 0 = no effect, 100 = complete control, read-out: Pigweed plant response rating (0 to 100 scale)
Method in brief: as §1

[14] = tested on: ryegrass, Italian (Italian ryegrass, Lolium multiflorum); test: Test A postemergence; settings: Lolium multiflorum, post-emergence, 240 h; for pest or weed control at 125 g/ha: 125 g ai/ha, postemergence, visual injury vs untreated controls after approx. 10 d, 0 = no effect, 100 = complete control, read-out: Ryegrass, Italian plant response rating (0 to 100 scale)
Method in brief: as §1

[15] = tested on: blackgrass (Alopecurus myosuroides); test: Test A postemergence; settings: Alopecurus myosuroides, post-emergence, 240 h; for pest or weed control at 125 g/ha: 125 g ai/ha, postemergence, visual injury vs untreated controls after approx. 10 d, 0 = no effect, 100 = complete control, read-out: Blackgrass plant response rating (0 to 100 scale); for pest or weed control at 31 g/ha: Postemergence, 31 g ai/ha, visual injury after approx. 10 d, 0 to 100 scale, 0 no effect, 100 complete control, read-out: Plant response rating, Blackgrass
Method in brief: as §1

corn (Zea mays) = test: Test A postemergence; settings: Zea mays, post-emergence, 240 h; for plant injury at 125 g/ha: 125 g ai/ha, postemergence, visual injury vs untreated controls after approx. 10 d, 0 = no effect, 100 = complete control, read-out: Corn plant response rating (0 to 100 scale); for Corn plant response rating (crop injury, 0 = no effect, 100 = complete kill) at 31 g/ha: Postemergence, 31 g ai/ha, visual injury after approx. 10 d, 0 to 100 scale, 100 complete control
Method in brief: as §1

rice (Oryra sativa) = test: Test B flooded paddy test; settings: Oryza sativa, 250 g ai/ha, Flood; 0 to 100 scale where 0 is no effect and 100 is complete control; read-out: Rice plant response rating
Method in brief: (§2)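 Compound goes directly into floodwater once pots are flooded 3 cm above soil, targeting plants at two leaves; the water depth is then held for the test duration. Plants sit 13–15 d in a greenhouse and are rated visually, 100 denoting complete control.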

[16] = tested on: sedge, umbrella (small-flower umbrella sedge, Cyperus difformis); test: Test B flooded paddy test; settings: Cyperus difformis, 250 g ai/ha, Flood; 0 to 100 scale where 0 is no effect and 100 is complete control; read-out: Sedge, Umbrella plant response rating
Method in brief: as §2

[17] = tested on: barnyardgrass (Echinochloa crus-galli); test: Test B flooded paddy test; settings: Echinochloa crus-galli, 250 g ai/ha, Flood; 0 to 100 scale where 0 is no effect and 100 is complete control; read-out: Barnyardgrass plant response rating
Method in brief: as §2

[18] = tested on: ducksalad (Heteranthera limosa); test: Test B flooded paddy test; settings: Heteranthera limosa, 250 g ai/ha, Flood; 0 to 100 scale where 0 is no effect and 100 is complete control; read-out: Ducksalad plant response rating
Method in brief: as §2

SMILES | pest or weed control at 31 g/ha [1] [%] | pest or weed control at 125 g/ha [1] [%] | pest or weed control at 31 g/ha [2] [%] | pest or weed control at 125 g/ha [2] [%] | pest or weed control at 31 g/ha (Kochia (Kochia scoparia) [3]) [%] | pest or weed control at 125 g/ha (Kochia (Kochia scoparia) [3]) [%] | pest or weed control at 31 g/ha [4] [%] | pest or weed control at 125 g/ha [4] [%] | pest or weed control at 31 g/ha [5] [%] | pest or weed control at 125 g/ha [5] [%] | pest or weed control at 31 g/ha [6] [%] | pest or weed control at 125 g/ha [6] [%] | pest or weed control at 125 g/ha [7] [%] | pest or weed control at 31 g/ha [7] [%] | pest or weed control at 125 g/ha [8] [%] | pest or weed control at 31 g/ha [8] [%] | plant injury at 125 g/ha [9] [%] | pest or weed control at 125 g/ha [10] [%] | pest or weed control at 31 g/ha [10] [%] | pest or weed control at 125 g/ha (Kochia (Kochia scoparia) [11]) [%] | further results
CN1C[C@H](c2ccc3ncccc3c2)[C@@H](C(=O)Nc2cccc(F)c2F)C1=O [Compound 1167] | 0 | 50 | 0 | 0 | 0 | 0 | 0 | 0 | 0 | 0 | 0 | 0 | 30 | 0 | 50 | 0 | 50 | 20 | 0 | 0 | plant injury at 31 g/ha ([9]; Postemergence, 31 g ai/ha, visual injury after approx. 10 d, 0 to 100 scale, 0 no effect, 100 complete control, read-out: Plant response rating, Wheat): 0%; pest or weed control at 31 g/ha (Kochia (Kochia scoparia) [11]): 0%; pest or weed control at 125 g/ha [12]: 0%; pest or weed control at 31 g/ha ([12]; Postemergence, 31 g ai/ha, visual injury after approx. 10 d, 0 to 100 scale, 0 no effect, 100 complete control, read-out: Plant response rating, Ragweed): 0%; pest or weed control at 125 g/ha [13]: 0%; pest or weed control at 31 g/ha ([13]; Postemergence, 31 g ai/ha, visual injury after approx. 10 d, 0 to 100 scale, 0 no effect, 100 complete control, read-out: Plant response rating, Pigweed): 0%; pest or weed control at 125 g/ha [14]: 0%; pest or weed control at 31 g/ha ([14]; Postemergence, 31 g ai/ha, visual injury after approx. 10 d, 0 to 100 scale, 0 no effect, 100 complete control, read-out: Plant response rating, Ryegrass, Italian): 0%; pest or weed control at 125 g/ha [15]: 0%; pest or weed control at 31 g/ha [15]: 0%; plant injury at 125 g/ha (corn (Zea mays)): 0%; Corn plant response rating (crop injury, 0 = no effect, 100 = complete kill) at 31 g/ha (corn (Zea mays)): 0%; pest or weed control at 250 g/ha (rice (Oryra sativa)): 0%; pest or weed control at 250 g/ha [16]: 0%; pest or weed control at 250 g/ha [17]: 0%; pest or weed control at 250 g/ha [18]: 0%
CON1CC[C@H](c2cccc(C(F)(F)F)c2)[C@@H](C(=O)Nc2cccc(Cl)c2F)C1=O [Compound 1171] | 70 | 90 | 40 | 80 | 0 | 30 | 0 | 0 | 0 | 40 | 0 | 60 | 60 | 30 | 70 | 20 | 0 | 0 | 0 | 0 | pest or weed control at 31 g/ha (Kochia (Kochia scoparia) [11]): 0%; pest or weed control at 125 g/ha [12]: 0%; pest or weed control at 125 g/ha [13]: 0%; pest or weed control at 125 g/ha [14]: 0%; pest or weed control at 125 g/ha [15]: 0%; pest or weed control at 31 g/ha [15]: 0%; plant injury at 125 g/ha (corn (Zea mays)): 0%; Corn plant response rating (crop injury, 0 = no effect, 100 = complete kill) at 31 g/ha (corn (Zea mays)): 0%; pest or weed control at 250 g/ha (rice (Oryra sativa)): 0%; pest or weed control at 250 g/ha [16]: 0%; pest or weed control at 250 g/ha [17]: 30%; pest or weed control at 250 g/ha [18]: 0%
